Laboratory results published in article PMC6010129, “Evaluation of sulphonamide derivatives acting as inhibitors of human carbonic anhydrase isoforms I, II and Mycobacterium tuberculosisβ-class enzyme Rv3273” (Journal of Enzyme Inhibition and Medicinal Chemistry, 2018).

Assays:
hCA II = biological target: T1, hCA II (Homo sapiens, UniProt P00918); assay: stopped-flow CO2 hydrase assay; assay type: biochemical
T1 construct: gene CA2; cytosolic isoform
Description: stopped-flow CO2 hydrase assay on hCA II

hCA I = biological target: T2, hCA I (Homo sapiens, UniProt P00915); assay: stopped-flow CO2 hydrase assay; assay type: biochemical
T2 construct: gene CA1; cytosolic isoform
T2 sequence (P00915 2-261): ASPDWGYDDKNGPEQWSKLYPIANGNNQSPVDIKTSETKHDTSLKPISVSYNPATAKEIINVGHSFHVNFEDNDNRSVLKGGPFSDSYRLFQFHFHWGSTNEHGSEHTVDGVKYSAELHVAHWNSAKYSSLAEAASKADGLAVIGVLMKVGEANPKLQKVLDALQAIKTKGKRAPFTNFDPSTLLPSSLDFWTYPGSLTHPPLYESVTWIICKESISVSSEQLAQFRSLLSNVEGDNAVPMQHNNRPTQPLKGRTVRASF
Description: stopped-flow CO2 hydrase assay on hCA I

mtCA 3 = biological target: T3, mtCA 3 (Mycobacterium tuberculosis, UniProt P96878); assay: biochemical; design: stopped-flow CO2 hydration assay, phenol red absorbance at 557 nm, 15 min pre-incubation, Ki by Cheng-Prusoff
T3 construct: beta-class carbonic anhydrase
T3 sequence (P96878 entry or part of it): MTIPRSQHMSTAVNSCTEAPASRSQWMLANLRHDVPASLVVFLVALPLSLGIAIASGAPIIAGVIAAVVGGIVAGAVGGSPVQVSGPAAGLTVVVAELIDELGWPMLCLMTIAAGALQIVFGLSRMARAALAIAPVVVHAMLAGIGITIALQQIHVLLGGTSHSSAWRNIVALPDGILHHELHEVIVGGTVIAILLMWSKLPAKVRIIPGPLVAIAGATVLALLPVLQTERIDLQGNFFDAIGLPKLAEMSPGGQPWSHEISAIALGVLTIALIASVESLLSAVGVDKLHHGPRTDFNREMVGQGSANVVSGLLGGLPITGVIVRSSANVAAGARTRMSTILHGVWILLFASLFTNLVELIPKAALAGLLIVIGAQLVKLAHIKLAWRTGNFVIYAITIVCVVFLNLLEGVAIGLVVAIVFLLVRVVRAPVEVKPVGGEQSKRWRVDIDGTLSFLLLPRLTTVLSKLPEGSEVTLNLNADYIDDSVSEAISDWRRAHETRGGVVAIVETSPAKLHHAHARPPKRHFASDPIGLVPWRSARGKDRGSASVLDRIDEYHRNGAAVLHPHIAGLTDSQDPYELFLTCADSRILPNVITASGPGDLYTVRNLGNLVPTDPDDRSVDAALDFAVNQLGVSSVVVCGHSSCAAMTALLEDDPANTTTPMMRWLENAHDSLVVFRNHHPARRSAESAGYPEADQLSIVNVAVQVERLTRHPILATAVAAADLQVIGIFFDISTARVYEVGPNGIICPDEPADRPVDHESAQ
Description: An Sx.18Mv-R Applied Photophysics (Oxford, UK) stopped-flow instrument has been used to assay the catalytic activity of various CA isozymes for CO2 hydration reaction. Phenol red (at a concentration of 0.2 mM) was used as indicator, working at the absorbance maximum of 557 nm, with 10 mM Hepes (pH 7.5) or 10 mM Tris (pH 8.5) as buffers, and 0.1 M Na2SO4 (for maintaining constant ionic strength, which is not inhibitory against these enzymes), following the CA-catalysed CO2 hydration reaction for a period of 10 s at 25 °C. The CO2 concentrations ranged from 1.7 to 17 mM for the determination of the kinetic parameters and […]. For each inhibitor at least six traces of the initial 5–10% of the reaction have been used for determining the initial rate. The uncatalysed rates were determined in the same manner and subtracted from the total observed rates. Stock solutions of inhibitors (10 mM) were prepared in distilled-deionised […] to 1 nM using the assay buffer. Inhibitor and enzyme solutions were pre-incubated together for 15 min (standard assay at room temperature) prior to assay, in order to allow for the formation of the enzyme–inhibitor complex. The inhibition constant (KI), was obtained by considering the classical Michaelis–Menten equation and the Cheng-Prusoff algorithm by using non-linear least squares fitting as reported earlier. The compounds 5 and 6 reported here were investigated as inhibitors of three CAs involved in crucial physiologic processes and known to act as drug targets, i.e. the human (h) isoforms hCA I and II (belonging to the α-CA class) and the bacterial enzyme mtCA3 from Mycobacterium tuberculosis (a β-class CA) (Table 3). Acetazolamide (AAZ), a clinically used sulphonamide has been employed as standard inhibitor in the assay.

Row | SMILES | Ki (hCA II) [nM] | Ki (hCA I) [nM] | Ki (mtCA 3) [nM]
1 | COc1cc(/C=N/NC(=O)CNc2ccc(S(N)(=O)=O)cc2)cc(OC)c1OC [6i, 4-((2-Oxo-2-(2-(3,4,5-trimethoxybenzylidene) hydrazinyl)ethyl)amino) benzenesulphonamide] | 446 | 890 | 216
2 | COc1cccc(C=NNC(=O)CNc2ccc(S(N)(=O)=O)cc2)c1OC [6j, 4-((2-(2-(2,3-Dimethoxybenzylidene)hydrazinyl)-2-oxoethyl)amino)benzenesulphonamide] | 240 | 785 | 232
